ChEMBL document CHEMBL3507680, “University of Dundee, Gates Library screen for HepG2 cell viability”

Assay: Human HepG2 cell viability assay in 384 well format
Type: toxicity, cell-based
Parameters: dose 125 nL, time 70.5 hour; cytotoxicity at 70.5 h: concentration not given beside the values
Conditions: HepG2 cells, read-out: Inhibition

Structure (SMILES) | cytotoxicity at 70.5 h
COCc1nc(N(C)C)ncc1C(=O)OC | -4.46%
CC1(C)Cc2ccccc2-c2nc(NCCCO)[nH]c(=O)c21 | -3.41%
O=c1[nH]c(NCCO)nc2c1C1(CCCCC1)Cc1ccccc1-2 | -1.9%
CO[C@@H]1CCN(c2ncc(F)cn2)[C@@H]2CN(CC3CC3)C[C@@H]21 | -11.2%
CCN1C[C@H]2CCN(C(=O)c3cc[nH]n3)CC[C@H]2S1(=O)=O | -14.6%
O=S(=O)(c1ccccc1)N1C[C@@H]2COC[C@]2(COCC2CC2)C1 | 1.08%
c1cc([C@H]2C[C@@H]3CCN(Cc4nccs4)C[C@H]3O2)ncn1 | -3.39%
CCC(C)n1c(SCC(=O)N2CCOCC2)nc2cc(C)[nH]c2c1=O (stereo not given) | 13.3%
Cc1cc2nc(SCC(=O)N3CCOCC3)n(CCC(C)C)c(=O)c2[nH]1 | -0.683%
O=C(O)c1nnn(-c2cccc(C(F)(F)F)c2)c1-c1ccncc1 | 5.64%
CCc1cccc(-n2nnc(C(=O)O)c2-c2ccncc2)c1 | -13.1%
O=C(O)c1nnn(-c2ccc(Cl)c(C(F)(F)F)c2)c1-c1ccncc1 | -26.7%
CN1CCc2c(C#N)c(NCCCO)n3cnnc3c2C1 | -20.7%
CN1CCc2c(C#N)c(NCc3ccncc3)n3cnnc3c2C1 | -14.7%
Cc1cc(NC(=O)CC2(Cn3cnnn3)CCCCC2)nn1C | -23.2%
Cc1ccc(C)c(NC(=O)Cn2cc(I)cn2)c1 | -13.2%
Cc1ccc(NC(=O)Cn2cc(I)cn2)cc1C | 20.3%
COc1cccc2c1ccn2CCC(=O)N1CCC(C(=O)O)CC1 | -5.23%
CC(C)NC(=O)CC1(Cn2cnnn2)CCCCC1 | -22.1%
O=C(COc1coc(CN2CCCCC2)cc1=O)c1ccccc1 | -18.6%
COc1ccc(C(=O)COc2coc(CN3CCSCC3)cc2=O)cc1 | -19.9%
O=C(O)C1CCCN(C(=O)CCn2ccc3c(Cl)cccc32)C1 (stereo not given) | -17.2%
CCCOc1cccc(C(=O)Oc2cc(=O)n3cccc(C)c3n2)c1 | -12.8%

Structure (SMILES) | cytotoxicity at 70.5 h
Cc1cccn2c(=O)cc(OC(=O)c3ccccc3Cl)nc12 | -10.1%
COCCNC(=O)Cn1c(-c2cccc(Cl)c2)nc(C)c(CCO)c1=O | 0.393%
CC/N=c1\nc(NCC)nc2n1C(O)(Nc1cccc(Cl)c1Cl)CS2 (stereo not given) | -1.29%
COCCNC(=O)Cn1c(-c2ccc(F)cc2)nc(C)c(CCO)c1=O | -2.18%
CCOc1cccc2c1OCC(=O)N(c1ccc(N(C)C)cc1)C2 | -8.85%
O=c1[nH]c2c(-c3ccccn3)nsc2c(=O)n1C1CCCCC1 | -5.9%
O=c1[nH]nc2c(S(=O)(=O)N3CCCC3)cccn12 | -4.02%
COCCn1ccc2c(cnc3nc(SC)nn32)c1=O | -4.98%
c1cc(-c2nnc3sc(CCN4CCCC4)nn23)ccn1 | -9.13%
O=C(c1cc(Br)ccc1-n1cnnn1)N1CCCC1 | -3.68%
O=C(CCc1ccc2c(c1)CCO2)Nc1nnn[nH]1 | -6.65%
CC(O)CNc1c(NCc2ccco2)c(=O)c1=O (stereo not given) | -9.21%
C[C@H](NC(=O)OC(C)(C)C)c1nnc(S(=O)(=O)Cc2cccc(F)c2)o1 | -6.88%
O=C(c1cc(Br)ccc1-n1cnnn1)N1CCCCC1 | 6.11%
O=C(O)Cn1nc(-c2ccccc2F)ccc1=O | 2.69%
NC(=O)Cn1nc(-c2ccccc2F)ccc1=O | -9.13%
CCOc1cc(C)c(-c2cc(N)[nH]n2)cc1OCC | -8.56%
CC/N=c1\nc(NCC)nc2n1C(O)(Nc1cc(C)ccc1C)CS2 (stereo not given) | -10.1%
CCOc1ccc(CNCCCn2ccnc2)cc1OC | -13.2%
Cc1nc(Nc2ccc(Cl)cn2)sc1C(=O)NCCCN1CCCCC1 | -3.37%
O=C(O)c1nnn(Cc2cccc(C(F)(F)F)c2)c1-c1ccccn1 | -7.66%
O=C(O)c1nnn(Cc2cccc(C(F)(F)F)c2)c1-c1ccncc1 | -8.89%
O=C(c1ccc(-c2ccc(O)nc2)s1)N1CCCCC1 | -8.32%

Structure (SMILES) | cytotoxicity at 70.5 h
Cn1ncc(C(=O)N2CCN(C(=O)c3ccco3)CC2)c1Cl | -13.4%
Cc1ccc2cnn(CCC(=O)Nc3nc(C)c(C)s3)c2c1 | 4.56%
COCc1nc(N(C)C)ncc1C(=O)Nc1cc(C)cc(C)c1 | -6.56%
Cc1ccc(CNc2cc(C(=O)N3CCOCC3)nc(C)n2)cc1 | -9.84%
Cc1nc(NCCc2ccccc2)cc(C(=O)N2CCOCC2)n1 | 5.2%
CCOC(=O)C1CCN(c2cc(C(=O)N3CCOCC3)nc(C)n2)CC1 | 0.918%
CCC(=O)Nc1nnc(CCOc2ccc(OC)cc2)s1 | 3.07%
CCn1c(SCC(=O)O)nnc1C(C)NC(=O)c1ccc(Cl)cc1 (stereo not given) | -8.19%
CC(NC(=O)c1ccc(Cl)cc1)c1nnc(SCC(=O)O)n1C (stereo not given) | 18.7%
CCOC(=O)C1CCN(c2cc(C(=O)N3CCCCC3)nc(C)n2)CC1 | -8.82%
O=C(O)c1ccnc2c(Br)cccc12 | -3.81%
CCn1ccc(NC(=O)CN2C(=O)CC(C)(C)c3ccccc32)n1 | -8.59%
COCCNC(=O)c1nnn(Cc2ccccc2)c1OC | -2.5%
COc1c(C(=O)NCC2CCCO2)nnn1Cc1ccccc1 (stereo not given) | -3.19%
COc1c(C(=O)NCC(C)C)nnn1Cc1ccccc1 | -4.1%
CCCNC(=O)c1cc(C(C)C)nc(N2CCCC2)n1 | -8.39%
Cc1cccc(NC(=O)c2cccc(OCc3nnnn3C)c2)n1 | 18.7%
CC1CCN(C(=O)C2CC(=O)N(c3cnn(C(C)C)c3)C2)CC1 (stereo not given) | -13.2%
CC(C)n1cc(N2CC(C(=O)N3CCC(C(N)=O)CC3)CC2=O)cn1 (stereo not given) | -11.7%
COc1cc(-c2n[nH]c(CO)n2)cc(OC)c1OC | 29.6%
CC(=O)NCCOc1c(Cl)cccc1Cl | 28.8%
Cc1ccc2c(c1)c(C)cc(=O)n2CCCN | -4.61%
COCCCNC(=O)c1cc(C(C)C)nc(N2CCCC2)n1 | -10.1%

Structure (SMILES) | cytotoxicity at 70.5 h
COCCNC(=O)c1cc(C(C)C)nc(N2CCCC2)n1 | -9.32%
CC(C)n1cc(S(=O)(=O)N2CCCCC2)cn1 | 9.02%
CCn1c(NCc2ccco2)nc2c(C)nn(C)c2c1=O | 31.6%
CCn1cc(CN(C)S(=O)(=O)c2cc(Cl)ccc2Cl)cn1 | 22.9%
CCOCCCNC(=O)c1nn(CC)cc1Cl | 21.2%
CCOCCCNC(=O)c1cn(CC)nc1C | -8.03%
Cc1ccc(NC(=O)c2n[nH]c(-n3cnnc3)n2)cc1C | 28.4%
Cc1ccc(C)c(NC(=O)c2n[nH]c(-n3cnnc3)n2)c1 | -0.779%
Cc1nn(C)c2c(N3CCN(C(=O)c4ccccc4)CC3)ncnc12 | -2.93%
CSCc1cccc(S(=O)(=O)N2CCSCC2)c1 | -4.49%
Cc1nn(C)c2cn(C(C)C(=O)NCc3cccnc3)nc12 (stereo not given) | -1.5%
Cc1nc(N2CCCCC2)ncc1-c1cc(O)[nH]n1 | -3.47%
CCc1nc(NCC(=O)N2CCOCC2)c2c(n1)c(C)nn2CC | -9.61%
CCC(=O)Nc1nnc(CCCOc2ccccc2)s1 | -13.1%
Cc1cccc2c1cnn2CCC(=O)NCC(=O)N(C)C | -9.91%
CCNC(=O)c1nnc2ccc(N3CCOCC3)cc2n1 | 12.6%
CCN(CC)C(=O)c1nnc2ccc(N3CCOCC3)cc2n1 | 26.5%
COCc1nc(N(C)C)ncc1C(=O)Nc1ccn(C)n1 | 5.17%
O=C1CC(c2ccccc2)c2snc(C(=O)O)c2N1 (stereo not given) | 24.7%
CCN1C(=O)C(C)(C)c2cc(NC(=O)c3ccco3)ccc21 | -7.99%
CCn1ccc(C(=O)NCCCN2CCOCC2)n1 | -11.6%
Cc1cc(C)n(CCC(=O)N2CCC(c3nc(C(C)C)no3)CC2)n1 | -5.07%
CC(C)C(=O)NCCCn1ncc2c(Cl)cccc21 | -0.542%

Structure (SMILES) | cytotoxicity at 70.5 h
Nc1ncc2c(n1)CN(C1CCCC1)C2=O | -7.28%
CC1(C)CC(N2Cc3nc(N4CCOCC4)ncc3C2=O)CC(C)(C)N1 | 13.3%
Cc1cccc(Cn2ccc(NS(C)(=O)=O)n2)c1 | -4.99%
Cc1ccc(Cn2ccc(NS(C)(=O)=O)n2)cc1 | -10.8%
CC(C)CN1CCS(=O)(=O)[C@@H]2CCN(S(=O)(=O)C3CC3)CC[C@@H]21 | -16.5%
CN1CCC2(CCN(CC3CC3)CC2)C1=O | -7.27%
CS(=O)(=O)N1CCCCC12CCCN(Cc1nccs1)C2 (stereo not given) | 11.6%
CO[C@@H]1CC[C@H]2[C@H]1OCCN2C(=O)c1ccc(C)nc1 | -3.99%
CNC(=O)C1Cn2ccnc2C2(CCN(C(=O)CC3CCCC3)CC2)O1 (stereo not given) | -1.06%
O=C(c1cnccn1)N1CCCC2(CCN(Cc3ccc(F)cc3)C2)C1 (stereo not given) | -4.76%
CS(=O)(=O)N1CC[C@]2(C[C@H](Oc3ccccn3)CO2)C1 | -7.19%
CNC(=O)C1Cn2ccnc2C2(CCN(C(=O)c3ccoc3C)CC2)O1 (stereo not given) | -5.12%
Cc1noc([C@H]2C[C@@H]3CCN(CC4CCOCC4)C[C@H]3O2)n1 | -1.09%
Cc1ccoc1C(=O)N1C[C@@H]2COC[C@]2(COCc2cccnc2)C1 | -0.687%
O=C(c1ccccc1F)N1C[C@@H]2COC[C@]2(COCc2cccnc2)C1 | -1.45%
O=C(Cc1cccs1)N1C[C@@H]2COC[C@]2(COCc2cccnc2)C1 | -5.53%
COc1ccc2c(c1)C1(CCN(Cc3ccccn3)CC1)N(C)CC2 | 0.00866%
Cn1cccc1CN1CCC2(CCCN(C(=O)c3cccnc3)C2)CC1 | -2.44%
O=C1N(c2ccsc2)CCC12CCCN(Cc1cccnc1)C2 (stereo not given) | -7.79%
Cc1ccc(N2CC3(COCCN(Cc4ccccn4)C3)OCC2=O)s1 (stereo not given) | -1.36%
Cc1ccc(N2CC3(COCCN(Cc4ccncc4)C3)OCC2=O)s1 (stereo not given) | 3.84%
COc1ccc(C(=O)CN(C2=NCCCCC2)c2ccccc2)cc1 | -25.8%
O=C(CN(C1=NCCCC1)c1ccccc1)c1ccc(OC(F)F)cc1 | -4.12%
